Data taken from PubChem BioAssay AID248 (DTP/NCI, 2004).
“And” between values parts separate entries of the source, which are not always exact repeats. Identical values can stand only once. Inconclusive results and toxic doses are left out. Cut-off read from the data, not from the text of the source: active = T/C of 150% or more; inactive = T/C below 125%.

Tested on: L1210 leukemia ip in BDF1 mice, survival T/C
Assay: NCI In Vivo Anticancer Drug Screen. Data for tumor model L1210 Leukemia (intraperitoneal) in B6D2F1 (BDF1) mice
Conditions: endpoint: mean survival time, higher = longer survival
In short: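 Mice bearing the transplanted tumor received compound or vehicle. Survival of the treated group was divided by that of the vehicle-treated control group to give the ratio.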

[1] = dose: 100.0 mg/kg/injection, schedule: Q01DX009 (ip), vehicle: saline with Tween-80
[2] = dose: 200.0 mg/kg/injection, schedule: Q01DX009 (ip), vehicle: saline with Tween-80
[3] = dose: 400.0 mg/kg/injection, schedule: Q01DX009 (ip), vehicle: saline with Tween-80
[4] = dose: 25.0 mg/kg/injection, schedule: Q01DX009 (ip), vehicle: Klucel (hydroxypropylcellulose) (HPC)
[5] = dose: 50.0 mg/kg/injection, schedule: Q01DX009 (ip), vehicle: Klucel (hydroxypropylcellulose) (HPC)
[6] = dose: 100.0 mg/kg/injection, schedule: Q01DX009 (ip), vehicle: Klucel (hydroxypropylcellulose) (HPC)
[7] = dose: 100.0 mg/kg/injection, schedule: Q04DX002 (ip), vehicle: Klucel (hydroxypropylcellulose) (HPC)
[8] = dose: 200.0 mg/kg/injection, schedule: Q04DX002 (ip), vehicle: Klucel (hydroxypropylcellulose) (HPC)
[9] = dose: 400.0 mg/kg/injection, schedule: Q04DX002 (ip), vehicle: Klucel (hydroxypropylcellulose) (HPC)
[10] = dose: 100.0 mg/kg/injection, schedule: Q04DX003 (ip), vehicle: saline with Tween-80
[11] = dose: 400.0 mg/kg/injection, schedule: Q04DX003 (ip), vehicle: saline with Tween-80
[12] = dose: 100.0 mg/kg/injection, schedule: Q04DX003 (ip), vehicle: Klucel (hydroxypropylcellulose) (HPC)
[13] = dose: 200.0 mg/kg/injection, schedule: Q01DX009 (ip), vehicle: Klucel (hydroxypropylcellulose) (HPC)
[14] = dose: 200.0 mg/kg/injection, schedule: Q04DX003 (ip), vehicle: Klucel (hydroxypropylcellulose) (HPC)
[15] = dose: 400.0 mg/kg/injection, schedule: Q04DX003 (ip), vehicle: Klucel (hydroxypropylcellulose) (HPC)
[16] = dose: 75.0 mg/kg/injection, schedule: Q01DX001 (ip), vehicle: other
[17] = dose: 150.0 mg/kg/injection, schedule: Q01DX001 (ip), vehicle: other
[18] = dose: 200.0 mg/kg/injection, schedule: Q04DX003 (ip), vehicle: saline with Tween-80
[19] = dose: 100.0 mg/kg/injection, schedule: Q01DX001 (ip), vehicle: saline
[20] = dose: 200.0 mg/kg/injection, schedule: Q01DX001 (ip), vehicle: saline
[21] = dose: 400.0 mg/kg/injection, schedule: Q01DX001 (ip), vehicle: saline
[22] = dose: 400.0 mg/kg/injection, schedule: Q01DX009 (ip), vehicle: Klucel (hydroxypropylcellulose) (HPC)
[23] = dose: 100.0 mg/kg/injection, schedule: Q04DX003 (ip), vehicle: saline
[24] = dose: 200.0 mg/kg/injection, schedule: Q04DX003 (ip), vehicle: saline

Measured: T/C

CCSc1nc(N)c(Br)c(Sc2nc(N)nc3nc[nH]c23)n1
inactive: dose: 100.0 mg/kg/injection, schedule: Q01DX Z (ip), vehicle: methylcellulose (MC) 98 % of control

O=C1C=CC(=Nc2ccc(Cl)cc2)O1
inactive: [1] 104 % of control | [2] 102 % of control | [3] 97 % of control

c1ccc(-c2ccccc2NC2=NCCO2)cc1
inactive: dose: 12.5 mg/kg/injection, schedule: Q01DX009 (ip), vehicle: saline with Tween-80 100 % of control | dose: 25.0 mg/kg/injection, schedule: Q01DX009 (ip), vehicle: saline with Tween-80 94 % of control | dose: 50.0 mg/kg/injection, schedule: Q01DX009 (ip), vehicle: saline with Tween-80 94 % of control

CC[N+](C)(CC)CCNC(=O)Nc1ccc(C)c(NC(=O)NCC[N+](C)(CC)CC)c1
inactive: dose: 1.56 mg/kg/injection, schedule: Q01DX009 (ip), vehicle: saline 97 % of control | dose: 3.12 mg/kg/injection, schedule: Q01DX009 (ip), vehicle: saline 95 % of control | dose: 3.12 mg/kg/injection, schedule: Q04DX002 (ip), vehicle: saline 90 % of control

Nc1ncnc(N)c1NC(=O)c1ccc(OCc2ccccc2)c(Br)c1
inactive: dose: 100.0 mg/kg/injection, schedule: Q01DX001 (ip), vehicle: saline with Tween-80 93 % of control | dose: 200.0 mg/kg/injection, schedule: Q01DX001 (ip), vehicle: saline with Tween-80 97 % of control | dose: 400.0 mg/kg/injection, schedule: Q01DX001 (ip), vehicle: saline with Tween-80 96 % of control

OC1=NN(Cc2ccccc2)NO1
inactive: [4] 95 % of control | [5] 95 % of control | [6] 92 % of control | [7] 104 % of control | [8] 104 % of control | [9] 93 % of control

CC(Br)C1=CC(c2ccccc2)(c2ccccc2)c2ccccc21 (stereo unspecified)
inactive: [10] 90 % of control | [11] 90 % of control

CC(C)(C)C(=O)OCn1cnc2c(=N)n(O)cnc21
inactive: [5] 103 % of control | [6] 100 % of control | [12] 97 % of control | [13] 101 % of control | [14] 108 % of control

O=S(=O)(N/C(=C(\NS(=O)(=O)c1ccccc1)c1ccccc1)c1ccccc1)c1ccccc1
inactive: [12] 97 % of control | [14] 95 % of control | [15] 92 % of control

CCCCC(CC)CC1CCCCC1O (stereo unspecified)
inactive: [6] 95 % of control | [12] 97 % of control | [13] 93 % of control | [14] 96 % of control | [15] 96 % of control

C[n+]1ccc(/C=C\Nc2ccccc2)cc1
inactive: [16] 94 % of control | [17] 94 % of control | dose: 300.0 mg/kg/injection, schedule: Q01DX001 (ip), vehicle: other 94 % of control

CC#CS(=O)(=O)c1ccccc1
inactive: [12] 94 % of control | [14] 95 % of control | [15] 98 % of control

O=c1ccnc[nH]1
inactive: [1] 92 % of control | [2] 93 % of control | [3] 88 % of control

CC(=O)Nc1cccc(NC(C)=O)n1
inactive: [10] 94 % of control | [18] 104 % of control | [11] 100 % of control

CCC(O)(c1ccccc1)c1ccccc1
inactive: [10] 103 % of control | [18] 99 % of control | [11] 98 % of control

CSc1cccc(Cl)c1
inactive: dose: 75.0 mg/kg/injection, schedule: Q01DX001 (ip), vehicle: saline 100 % of control | dose: 150.0 mg/kg/injection, schedule: Q01DX001 (ip), vehicle: saline 101 % of control

CC(C)(C)N1CC(C(=O)c2ccccc2)C1c1ccccc1 (stereo unspecified)
inactive: [19] 94 % of control | [6] 96 % of control | [10] 96 % of control and 107 % of control | [20] 94 % of control | [13] 101 % of control | [18] 90 % of control and 94 % of control | [21] 92 % of control | [22] 100 % of control | [11] 96 % of control and 98 % of control

O=S(O)c1ccc2cc(O)c(S(=O)O)cc2c1
inactive: [19] 95 % of control | [1] 95 % of control | [20] 97 % of control | [2] 95 % of control | [21] 97 % of control | [3] 92 % of control

CCN(CC(=O)O)CC(=O)O
inactive: [19] 93 % of control | [20] 112 % of control | [21] 96 % of control

ICC1COCC(CI)O1 (stereo unspecified)
inactive: [1] 101 % of control | [2] 113 % of control | [3] 106 % of control

COc1ccc(NC(C)=O)c(C)c1
inactive: [1] 99 % of control | [10] 112 % of control | [2] 96 % of control | [18] 119 % of control | [3] 103 % of control | [11] 96 % of control

CC(=O)NC1CCCCCC1I (stereo unspecified)
inactive: dose: 10.0 mg/kg/injection, schedule: Q01DX001 (ip), vehicle: saline 105 % of control | dose: 20.0 mg/kg/injection, schedule: Q01DX001 (ip), vehicle: saline 101 % of control | dose: 40.0 mg/kg/injection, schedule: Q01DX001 (ip), vehicle: saline 98 % of control

CC(O)CC[P+](c1ccccc1)(c1ccccc1)c1ccccc1 (stereo unspecified)
inactive: [16] 101 % of control | [17] 93 % of control

C[As](C)(=S)[As](C)(C)=S
inactive: dose: 12.5 mg/kg/injection, schedule: Q01DX009 (ip), vehicle: Klucel (hydroxypropylcellulose) (HPC) 97 % of control | dose: 12.5 mg/kg/injection, schedule: Q04DX002 (ip), vehicle: Klucel (hydroxypropylcellulose) (HPC) 107 % of control and 88 % of control | [4] 97 % of control | dose: 25.0 mg/kg/injection, schedule: Q04DX002 (ip), vehicle: Klucel (hydroxypropylcellulose) (HPC) 96 % of control and 91 % of control | [5] 87 % of control

CC1(C)OCC(=NNC(N)=O)CO1
inactive: dose: 50.0 mg/kg/injection, schedule: Q01DX009 (ip), vehicle: saline 96 % of control | dose: 100.0 mg/kg/injection, schedule: Q01DX009 (ip), vehicle: saline 93 % of control | [23] 90 % of control | [24] 90 % of control

CCOC(=O)C1C2c3ccccc3C(C1C(=O)OCC)[n+]1ccccc12 (stereo unspecified)
inactive: [23] 100 % of control | [24] 97 % of control | dose: 400.0 mg/kg/injection, schedule: Q04DX003 (ip), vehicle: saline 100 % of control

C(=N\OCc1ccccc1)/c1ccccn1
inactive: [6] 94 % of control | [12] 96 % of control | [13] 101 % of control | [14] 97 % of control | [22] 100 % of control | [15] 103 % of control

O=C(C[P+](c1ccccc1)(c1ccccc1)c1ccccc1)Nc1ccccc1
inactive: dose: 10.0 mg/kg/injection, schedule: Q01DX009 (ip), vehicle: Klucel (hydroxypropylcellulose) (HPC) 100 % of control | dose: 20.0 mg/kg/injection, schedule: Q01DX009 (ip), vehicle: Klucel (hydroxypropylcellulose) (HPC) 108 % of control | dose: 40.0 mg/kg/injection, schedule: Q01DX009 (ip), vehicle: Klucel (hydroxypropylcellulose) (HPC) 100 % of control | dose: 75.0 mg/kg/injection, schedule: Q01DX009 (ip), vehicle: Klucel (hydroxypropylcellulose) (HPC) 107 % of control

O=[N+]([O-])c1cccc(OCCCCBr)c1
inactive: dose: 100.0 mg/kg/injection, schedule: Q04DX003 (ip), vehicle: other 97 % of control | dose: 200.0 mg/kg/injection, schedule: Q04DX003 (ip), vehicle: other 110 % of control | dose: 400.0 mg/kg/injection, schedule: Q04DX003 (ip), vehicle: other 102 % of control

N=C(N)N(CC(=O)O)Cc1ccccc1
inactive: dose: 100.0 mg/kg/injection, schedule: Q04DX002 (ip), vehicle: saline with Tween-80 101 % of control | dose: 200.0 mg/kg/injection, schedule: Q04DX002 (ip), vehicle: saline with Tween-80 114 % of control | dose: 400.0 mg/kg/injection, schedule: Q04DX002 (ip), vehicle: saline with Tween-80 104 % of control

Cc1cc(NC(=O)Nc2cc([N+](=O)[O-])ccc2Cl)no1
inactive: dose: 100.0 mg/kg/injection, schedule: Q01DX001 (ip), vehicle: Klucel (hydroxypropylcellulose) (HPC) 89 % of control | [6] 96 % of control and 98 % of control | [7] 104 % of control and 91 % of control | [12] 96 % of control | [13] 106 % of control and 90 % of control | [8] 95 % of control and 98 % of control | [14] 97 % of control | [22] 98 % of control | [9] 95 % of control and 106 % of control | [15] 97 % of control
